These results are taken from PubChem BioAssay (NCI).

SMILES strings stand for the structures.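 Step 1: Grow cells in 96-well plates. Step 2: Expose to compound for 48 hours at 5 concentrations. Step 3: Interpolate endpoints linearly; if unreached, use highest concentration. TGI is the concentration that stops growth completely.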

Test systems include SN12C renal; A498 renal; KM12 colon; HCT-15 colon; NCI-H460 lung; UACC-62 melanoma; IGROV1 ovarian; HOP-92 NSCLC; OVCAR-3 ovarian; SK-MEL-28 melanoma; MCF7 breast; NCI-H226 lung; SK-MEL-2 melanoma; OVCAR-4 ovarian; T-47D breast; UO-31 renal; UACC-257 melanoma; SK-MEL-5 melanoma; COLO 205 colon; MOLT-4 leukemia.
Holding throughout (test): NCI-60 cell line screen, 48 h

For the compound `Cc1cc(S(=O)(=O)n2ccnc2Oc2ccccc2)c(SSc2cc(Cl)c(C)cc2S(=O)(=O)n2ccnc2Oc2ccccc2)cc1Cl`, the TGI in the test with SN12C renal, with A498 renal, in the test on KM12 colon, with HCT-15 colon, in the test with NCI-H460 lung and in the test with UACC-62 melanoma was > 100 µM throughout. Besides, the TGI in the test with IGROV1 ovarian, in the test on HOP-92 NSCLC, in the test with OVCAR-3 ovarian, in the test with SK-MEL-28 melanoma, in the test on MCF7 breast and in the test on NCI-H226 lung was > 100 µM in each case. For the same compound, the TGI with SK-MEL-2 melanoma, in the test with OVCAR-4 ovarian, with T-47D breast, in the test with UO-31 renal, with UACC-257 melanoma and in the test with SK-MEL-5 melanoma was > 100 µM throughout. Further, the TGI with COLO 205 colon was > 100 µM.

Turning to `COc1ccc(C2=Nn3c(nc4sc(-c5ccccc5)cc4c3=O)SC2)cc1`, the TGI in the test on SN12C renal, with A498 renal, in the test with KM12 colon, in the test on HCT-15 colon, in the test with NCI-H460 lung and in the test with MOLT-4 leukemia was > 100 µM in each case. Further, the TGI in the test with UACC-62 melanoma, in the test with IGROV1 ovarian, in the test with HOP-92 NSCLC, in the test with OVCAR-3 ovarian, with SK-MEL-28 melanoma and in the test on MCF7 breast was > 100 µM each time. Moreover, the TGI with NCI-H226 lung, in the test with T-47D breast, in the test with UO-31 renal, in the test on UACC-257 melanoma, in the test with SK-MEL-5 melanoma and with COLO 205 colon was > 100 µM throughout.

Consider `OCc1ccc2c(c1)CC1(C2)Cc2cc3c(cc2C1)CCC3`, for which the TGI with SN12C renal is > 50.8 µM; in the test on A498 renal it was 35.4 µM; in the test with KM12 colon it was > 100 µM; in the test on HCT-15 colon it was > 100 µM; in the test on NCI-H460 lung it was > 100 µM; in the test on MOLT-4 leukemia, > 100 µM. Besides, the TGI in the test with UACC-62 melanoma is > 72.2 µM; in the test on IGROV1 ovarian, > 100 µM; in the test on HOP-92 NSCLC, > 74 µM; in the test on OVCAR-3 ovarian, > 100 µM; in the test on SK-MEL-28 melanoma, > 100 µM; in the test on MCF7 breast it was > 100 µM. Also, the TGI in the test on NCI-H226 lung, with SK-MEL-2 melanoma, in the test on OVCAR-4 ovarian, in the test with T-47D breast, with UO-31 renal and in the test with UACC-257 melanoma was > 100 µM throughout. In addition, the TGI in the test with SK-MEL-5 melanoma is > 31.2 µM.

For the compound `O=C1/C(=C/c2ccccc2)N=C(c2ccccc2)N1C1Nc2cc3c(cc2S1)NC(N1C(=O)/C(=C/c2ccccc2)N=C1c1ccccc1)S3` (stereo not drawn), the TGI in the test on A498 renal was 68 µM; in the test on KM12 colon it was 55.6 µM; with HCT-15 colon, 82.9 µM; in the test with NCI-H460 lung it was > 100 µM; in the test on MOLT-4 leukemia, 88.2 µM; in the test with IGROV1 ovarian it was > 100 µM. Also, the TGI with HOP-92 NSCLC is 8.27 µM; in the test with OVCAR-3 ovarian, > 100 µM; with SK-MEL-28 melanoma it was > 100 µM; in the test with MCF7 breast it was > 100 µM; in the test on NCI-H226 lung, > 100 µM; with SK-MEL-2 melanoma it was 77.5 µM. Further, the TGI in the test with OVCAR-4 ovarian, in the test on T-47D breast, with UO-31 renal, in the test on UACC-257 melanoma and in the test with SK-MEL-5 melanoma was > 100 µM each time.

Regarding `COc1ccc(N2C(=O)c3cccnc3S2(=O)=O)cc1`, the TGI in the test with SN12C renal, in the test on A498 renal, in the test on KM12 colon, in the test on HCT-15 colon, in the test on NCI-H460 lung and in the test on MOLT-4 leukemia was > 100 µM in each case. In addition, the TGI in the test on UACC-62 melanoma, with IGROV1 ovarian, in the test with HOP-92 NSCLC, in the test with OVCAR-3 ovarian, in the test with SK-MEL-28 melanoma and with MCF7 breast was > 100 µM each time. Besides, the TGI in the test on NCI-H226 lung, with SK-MEL-2 melanoma, in the test on OVCAR-4 ovarian, with T-47D breast, in the test on UO-31 renal and with UACC-257 melanoma was > 100 µM in each case. The TGI in the test on COLO 205 colon is > 100 µM.

Regarding `Cc1nc(-c2cc3c(ccc4ccccc43)oc2=O)cc2c1c(=O)oc1ccc3ccccc3c12`, the TGI in the test on A498 renal, with KM12 colon, with HCT-15 colon, in the test with NCI-H460 lung, with MOLT-4 leukemia and in the test with UACC-62 melanoma was > 100 µM each time. Further, the TGI in the test with IGROV1 ovarian, in the test with HOP-92 NSCLC, with OVCAR-3 ovarian, in the test with SK-MEL-28 melanoma, with MCF7 breast and in the test on SK-MEL-2 melanoma was > 100 µM in each case. In addition, the TGI in the test on OVCAR-4 ovarian, in the test with T-47D breast, in the test on UO-31 renal, with UACC-257 melanoma, in the test with SK-MEL-5 melanoma and in the test with COLO 205 colon was > 100 µM throughout.

Take `O=C1CSC(c2ccc(Cl)cc2)N1c1ccc(-c2ccc(-n3c(-c4ccccc4)nc4ccccc4c3=O)cc2)cc1` (stereo not drawn): the TGI in the test on SN12C renal was > 100 µM; in the test on A498 renal, > 100 µM; in the test on KM12 colon it was > 100 µM; in the test with HCT-15 colon, > 100 µM; in the test on NCI-H460 lung, > 100 µM; in the test with MOLT-4 leukemia it was 83.6 µM. Moreover, the TGI with UACC-62 melanoma is > 100 µM; in the test on IGROV1 ovarian it was > 100 µM; in the test on HOP-92 NSCLC, 97.9 µM; with OVCAR-3 ovarian it was > 100 µM; in the test on SK-MEL-28 melanoma it was > 100 µM; with MCF7 breast, > 100 µM. For the same compound, the TGI in the test with SK-MEL-2 melanoma is > 100 µM; in the test with OVCAR-4 ovarian, 56.8 µM; in the test with T-47D breast it was 52.1 µM; in the test with UO-31 renal, 59.5 µM; in the test on UACC-257 melanoma, > 100 µM; in the test on SK-MEL-5 melanoma, > 100 µM. In the test on COLO 205 colon, the TGI is > 100 µM.

Consider `Cn1c(=O)c2c(nc(N)n2C2OC(CO)C(O)C2O)n(C)c1=O` (stereo not drawn), for which the TGI in the test with SN12C renal, in the test with A498 renal, with KM12 colon, in the test on HCT-15 colon, in the test with NCI-H460 lung and in the test on MOLT-4 leukemia was > 100 µM in each case. The TGI in the test on UACC-62 melanoma, in the test with IGROV1 ovarian, in the test with HOP-92 NSCLC, in the test with OVCAR-3 ovarian, in the test on SK-MEL-28 melanoma and in the test with MCF7 breast was > 100 µM in each case. For the same compound, the TGI in the test on NCI-H226 lung, in the test with OVCAR-4 ovarian, in the test with T-47D breast, in the test with UO-31 renal, with UACC-257 melanoma and with SK-MEL-5 melanoma was > 100 µM throughout. In addition, the TGI with COLO 205 colon was > 100 µM.
